Tests used:
[1] = target: T1, MRP3 (Homo sapiens, UniProt O15438); experiment: shRNA-mediated MRP3 knock-down, glucuronide excretion in HeLa1A1 cells; assay type: cell-based; conditions: DMC 4 μM; for decrease of fmet value: MRP3 partial knock-down, Fig 10E; for decrease in efflux excretion clearance / increase in intracellular level: MRP3 silencing; for decrease in efflux excretion clearance: Fig 10C; for increase in intracellular level: Fig 10D
T1 construct: BCRP, MRP1, MRP3, and MRP4 were detected in both wild-type HeLa and HeLa1A1 cells; endogenous in cells; host or cells: HeLa1A1 cells (MRP3-shRNA versus scrambled shRNA)
T1 sequence (O15438 whole entry): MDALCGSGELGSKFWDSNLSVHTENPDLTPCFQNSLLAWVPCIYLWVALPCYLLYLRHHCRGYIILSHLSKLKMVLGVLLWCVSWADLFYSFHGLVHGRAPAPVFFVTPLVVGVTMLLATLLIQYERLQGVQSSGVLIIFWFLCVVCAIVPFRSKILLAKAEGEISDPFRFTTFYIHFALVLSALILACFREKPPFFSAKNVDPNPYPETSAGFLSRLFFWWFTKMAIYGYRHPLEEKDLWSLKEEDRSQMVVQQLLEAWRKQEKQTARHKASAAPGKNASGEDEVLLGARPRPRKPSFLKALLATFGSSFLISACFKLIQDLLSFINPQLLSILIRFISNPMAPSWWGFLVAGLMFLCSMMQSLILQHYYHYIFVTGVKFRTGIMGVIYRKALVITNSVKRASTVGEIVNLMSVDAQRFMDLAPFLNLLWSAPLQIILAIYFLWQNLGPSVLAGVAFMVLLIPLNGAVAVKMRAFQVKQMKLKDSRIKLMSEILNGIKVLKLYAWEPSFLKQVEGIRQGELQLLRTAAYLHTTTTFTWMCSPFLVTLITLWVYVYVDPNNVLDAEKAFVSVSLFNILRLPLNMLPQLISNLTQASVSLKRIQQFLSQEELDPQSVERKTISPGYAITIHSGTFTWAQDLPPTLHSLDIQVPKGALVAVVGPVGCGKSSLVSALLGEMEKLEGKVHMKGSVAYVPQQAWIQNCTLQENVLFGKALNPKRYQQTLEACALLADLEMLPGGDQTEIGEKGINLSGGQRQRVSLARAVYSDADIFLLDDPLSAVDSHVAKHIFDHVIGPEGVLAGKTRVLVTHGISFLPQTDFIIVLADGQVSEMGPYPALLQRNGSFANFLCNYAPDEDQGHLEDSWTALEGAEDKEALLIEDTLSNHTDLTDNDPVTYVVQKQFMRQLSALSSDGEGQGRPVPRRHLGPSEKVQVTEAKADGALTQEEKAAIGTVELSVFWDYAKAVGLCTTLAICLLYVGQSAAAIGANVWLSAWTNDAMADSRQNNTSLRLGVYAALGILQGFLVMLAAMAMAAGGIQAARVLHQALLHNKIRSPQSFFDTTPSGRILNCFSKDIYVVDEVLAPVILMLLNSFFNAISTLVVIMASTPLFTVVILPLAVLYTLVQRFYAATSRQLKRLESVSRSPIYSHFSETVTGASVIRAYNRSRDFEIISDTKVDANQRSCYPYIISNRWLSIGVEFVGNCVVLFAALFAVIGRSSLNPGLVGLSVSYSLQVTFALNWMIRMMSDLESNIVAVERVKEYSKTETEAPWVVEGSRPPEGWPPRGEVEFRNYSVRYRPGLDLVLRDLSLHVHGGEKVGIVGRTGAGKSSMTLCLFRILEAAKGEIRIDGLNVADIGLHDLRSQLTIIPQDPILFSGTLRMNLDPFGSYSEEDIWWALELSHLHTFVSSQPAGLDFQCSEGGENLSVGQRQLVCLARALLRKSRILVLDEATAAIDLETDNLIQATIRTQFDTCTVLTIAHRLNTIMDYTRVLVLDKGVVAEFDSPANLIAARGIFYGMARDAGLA
Protocol: (§1) Prior to the assays, HeLa1A1 cells were washed twice with prewarmed (37°C) Hank’s balanced salt solution (HBSS, pH = 7.4). Subsequently, HeLa1A1 cells were pretreated and incubated with DMC (2, 4 or 8 μM) and dissolved in 2 mL of HBSS. The sampling times were selected to ensure that the plots of the amount excreted versus time remained in the linear range. At each time point (0.5, 1.0, 1.5 and 2.0 h), 200 μL of incubation solutions were collected from each well, and an equal volume of loading media was used to replenish each well. Then, the collected samples were each mixed with 100 μL of ice-cold acetonitrile. The supernatants (8.0 μL) were subjected to an ultra high-performance liquid chromatography (UHPLC) analysis after centrifugation (10 min at 13,800 g).
(§2) Furthermore, the excretion rates of generated glucuronides were calculated using Eq (1). In addition, the fraction metabolized (fmet) value was defined as the fraction of the dose metabolized based on Eq (2). V represents the volume of the incubation medium, C represents the concentration of excreted glucuronides, and t represents the incubation time.
(§3) The shRNA plasmids targeting the efflux transporters BCRP, MRP1, MRP3 and MRP4 were constructed using previously described methods. HeLa1A1 cells were transiently transfected with the corresponding shRNA plasmids. The procedures for the establishment of HeLa1A1-BCRP-shRNA cells, HeLa1A1-MRP1-shRNA cells, HeLa1A1-MRP3-shRNA cells and HeLa1A1-MRP4-shRNA cells are detailed in our previous publication. Moreover, levels of the BCRP, MRP1, MRP3 and MRP4 proteins in these constructed HeLa1A1 cells were determined by western blotting assays, as described previously.

[2] = target: T2, MRP1 (Homo sapiens, UniProt P33527); experiment: shRNA-mediated MRP1 knock-down, glucuronide excretion in HeLa1A1 cells; assay type: cell-based; conditions: DMC 4 μM; for decrease of efflux excretion rate / decrease of metabolized fraction: MRP1 knock-down; for decrease of efflux excretion rate: Fig 9C; for decrease of metabolized fraction: Fig 9E; for increase in intracellular level: MRP1 silencing, Fig 9D
T2 construct: BCRP, MRP1, MRP3, and MRP4 were detected in both wild-type HeLa and HeLa1A1 cells; endogenous in cells; host or cells: HeLa1A1 cells (MRP1-shRNA versus scrambled shRNA)
T2 sequence (P33527 whole entry): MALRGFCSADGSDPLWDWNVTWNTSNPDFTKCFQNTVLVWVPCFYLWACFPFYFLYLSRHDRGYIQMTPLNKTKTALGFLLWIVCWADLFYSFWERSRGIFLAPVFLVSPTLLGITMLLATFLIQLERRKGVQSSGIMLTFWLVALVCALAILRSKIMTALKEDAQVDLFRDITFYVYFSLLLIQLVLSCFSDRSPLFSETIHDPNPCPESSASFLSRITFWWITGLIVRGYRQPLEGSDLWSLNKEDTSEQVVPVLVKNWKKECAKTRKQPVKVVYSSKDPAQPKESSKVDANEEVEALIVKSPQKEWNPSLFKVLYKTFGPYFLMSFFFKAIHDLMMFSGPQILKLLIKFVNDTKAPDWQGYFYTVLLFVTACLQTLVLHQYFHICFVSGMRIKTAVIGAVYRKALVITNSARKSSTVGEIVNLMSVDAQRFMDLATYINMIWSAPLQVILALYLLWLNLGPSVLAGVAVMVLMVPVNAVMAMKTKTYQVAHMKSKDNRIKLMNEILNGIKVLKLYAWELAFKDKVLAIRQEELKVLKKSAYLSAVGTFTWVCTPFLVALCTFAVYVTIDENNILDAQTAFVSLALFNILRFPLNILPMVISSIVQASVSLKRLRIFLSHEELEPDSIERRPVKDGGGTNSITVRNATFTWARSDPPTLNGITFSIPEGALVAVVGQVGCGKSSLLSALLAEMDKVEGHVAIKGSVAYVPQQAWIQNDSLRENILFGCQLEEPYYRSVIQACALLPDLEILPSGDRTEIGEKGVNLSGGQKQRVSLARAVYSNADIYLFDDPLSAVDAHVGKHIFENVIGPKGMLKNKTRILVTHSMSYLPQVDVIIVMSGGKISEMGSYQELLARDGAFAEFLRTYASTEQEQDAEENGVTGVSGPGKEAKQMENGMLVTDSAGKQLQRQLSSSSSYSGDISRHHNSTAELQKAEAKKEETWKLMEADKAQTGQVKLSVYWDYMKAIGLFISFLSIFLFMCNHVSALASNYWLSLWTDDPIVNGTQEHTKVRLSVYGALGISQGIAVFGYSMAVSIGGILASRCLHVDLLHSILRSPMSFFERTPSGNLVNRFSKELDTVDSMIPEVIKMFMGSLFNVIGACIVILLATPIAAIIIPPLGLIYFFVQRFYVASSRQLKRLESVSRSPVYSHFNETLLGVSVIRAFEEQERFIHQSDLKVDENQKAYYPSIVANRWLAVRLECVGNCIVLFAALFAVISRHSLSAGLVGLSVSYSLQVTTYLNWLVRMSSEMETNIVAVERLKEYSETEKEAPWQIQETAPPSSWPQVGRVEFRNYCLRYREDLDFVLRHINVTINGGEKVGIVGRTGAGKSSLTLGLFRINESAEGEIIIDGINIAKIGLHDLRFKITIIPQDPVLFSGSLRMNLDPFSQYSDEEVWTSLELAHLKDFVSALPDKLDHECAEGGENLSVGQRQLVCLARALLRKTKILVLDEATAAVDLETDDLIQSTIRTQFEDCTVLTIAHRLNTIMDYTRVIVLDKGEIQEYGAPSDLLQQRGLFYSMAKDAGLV
Protocol: as §1, §2, §3

[3] = target: T3, BCRP (Homo sapiens, UniProt Q9UNQ0); experiment: shRNA-mediated BCRP knock-down, glucuronide excretion in HeLa1A1 cells; assay type: cell-based; set-up: BCRP, MRP1, MRP3, and MRP4 were detected in both wild-type HeLa and HeLa1A1 cells; endogenous in cells; host or cells: HeLa1A1 cells; conditions: BCRP silencing, DMC 4 μM; for reduction of efflux excretion rate: Fig 8C; for increase of intracellular level: Fig 8D; for decrease in fmet value: Fig 8E
T3 sequence (Q9UNQ0 1-655): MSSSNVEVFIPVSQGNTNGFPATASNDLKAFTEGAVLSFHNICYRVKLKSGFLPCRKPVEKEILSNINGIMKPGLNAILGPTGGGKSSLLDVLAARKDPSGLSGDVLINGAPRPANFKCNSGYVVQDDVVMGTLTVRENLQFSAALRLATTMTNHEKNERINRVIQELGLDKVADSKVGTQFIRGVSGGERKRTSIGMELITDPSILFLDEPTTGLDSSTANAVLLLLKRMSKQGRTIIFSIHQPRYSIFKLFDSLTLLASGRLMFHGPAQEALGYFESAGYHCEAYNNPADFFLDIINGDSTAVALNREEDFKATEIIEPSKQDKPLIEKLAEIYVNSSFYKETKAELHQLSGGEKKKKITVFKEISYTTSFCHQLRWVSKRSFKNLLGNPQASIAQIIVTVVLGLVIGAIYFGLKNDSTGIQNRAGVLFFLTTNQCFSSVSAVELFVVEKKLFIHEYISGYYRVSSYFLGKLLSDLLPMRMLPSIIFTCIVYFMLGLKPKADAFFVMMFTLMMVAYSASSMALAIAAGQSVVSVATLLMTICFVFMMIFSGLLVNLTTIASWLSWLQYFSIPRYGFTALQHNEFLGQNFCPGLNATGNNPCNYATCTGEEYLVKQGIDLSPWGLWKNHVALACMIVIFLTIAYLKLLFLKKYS
Protocol: as §1, §2, §3

[4] = tested on: BCRP transporter; set-up: method as in PMID 12477054; conditions: cited from earlier work
[5] = target: T4, UGT1A1 (Homo sapiens, UniProt P22309); experiment: Chemical inhibition of DMC-O-glucuronidation by UGT1A1 inhibitors in HeLa1A1 cell lysate; assay type: biochemical; set-up: expressed in transfected cells; host or cells: HeLa cells stably overexpressing UGT1A1 (HeLa1A1), used as cell lysate; conditions: DMC 4 μM, HeLa1A1 cell lysate 2.3 mg/mL
T4 sequence (P22309 26-533): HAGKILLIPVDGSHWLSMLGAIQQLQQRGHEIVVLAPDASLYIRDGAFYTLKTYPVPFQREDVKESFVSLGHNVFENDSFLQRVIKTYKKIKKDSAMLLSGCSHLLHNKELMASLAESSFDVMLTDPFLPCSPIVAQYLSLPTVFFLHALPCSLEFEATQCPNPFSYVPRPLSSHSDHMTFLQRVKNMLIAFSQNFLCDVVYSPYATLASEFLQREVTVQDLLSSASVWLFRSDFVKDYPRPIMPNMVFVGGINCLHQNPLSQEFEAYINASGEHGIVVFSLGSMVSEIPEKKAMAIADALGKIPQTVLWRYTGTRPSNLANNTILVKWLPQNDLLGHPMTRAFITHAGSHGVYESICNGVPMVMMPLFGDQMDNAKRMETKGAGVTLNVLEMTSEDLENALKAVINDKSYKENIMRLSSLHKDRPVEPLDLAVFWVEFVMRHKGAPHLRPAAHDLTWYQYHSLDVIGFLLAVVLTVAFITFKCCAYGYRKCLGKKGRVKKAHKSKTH
Protocol: The glucuronidation assay was performed as previously described. Briefly, alamethicin (22 μg/mL), D-saccharic-1,4-lactone (4.4 mM), MgCl2 (0.88 mM), UGT1A1 (1.0 mg/mL) or HeLa1A1 cell lysates (2.3 mg/mL) and DMC (0.5 to 40 μM) were mixed in a 50 mM Tris buffer (pH 7.4). After a preincubation at 37°C for 5 min, UDPGA (3.5 mM) was added to the incubation system, and the mixture was further incubated. After 30 min, the reactions were terminated by the addition of ice-cold acetonitrile (200 μL). The mixed samples were centrifuged at 13,800 x g for 10 min, and the supernatant was analyzed using UHPLC.
Analyses of chemical inhibition and activity correlations were performed as two additional independent assays to determine the roles of the UGT1A1 enzyme. In these studies, nilotinib (10 μM), glycyrrhetinic acid (20 μM) and protopanaxatriol (500 μM) were used as UGT1A1 inhibitors to investigate the metabolic activities of DMC (4 μM). The incubation conditions were the same as those used for the glucuronidation activity assays.

SMILES | decrease of fmet value [1] [%] | decrease in efflux excretion clearance [1] [%] | increase in intracellular level [1] [%] | decrease of efflux excretion rate [2] [%] | decrease of metabolized fraction [2] [%] | increase in intracellular level [2] [%] | reduction of efflux excretion rate [3] [%] | increase of intracellular level [3] [%] | decrease in fmet value [3] [%] | other results
COc1ccc2c3c([nH]c2c1)[C@H](CC(C)C)N1C(=O)[C@H](CCC(=O)OC(C)(C)C)NC(=O)[C@@H]1C3 [Ko143] | – | – | – | – | – | – | – | – | – | IC50 [4]: 0.023 µM
Cc1cn(-c2cc(NC(=O)c3ccc(C)c(Nc4nccc(-c5cccnc5)n4)c3)cc(C(F)(F)F)c2)cn1 [Nilotinib, nilotinib] | – | – | – | – | – | – | – | – | – | formation of G1 and G2 ([5]; inhibitor 10 μM): significantly inhibited
CC1(C)[C@@H](O)CC[C@]2(C)[C@H]3C(=O)C=C4[C@@H]5C[C@@](C)(C(=O)O)CC[C@]5(C)CC[C@@]4(C)[C@]3(C)CC[C@@H]12 [glycyrrhetinic acid] | – | – | – | – | – | – | – | – | – | formation of G1 and G2 ([5]; inhibitor 20 μM): significantly inhibited
CC(C)=CCC[C@](C)(O)[C@H]1CC[C@]2(C)[C@@H]1[C@H](O)C[C@@H]1[C@@]3(C)CC[C@H](O)C(C)(C)[C@@H]3[C@@H](O)C[C@]12C [protopanaxatriol] | – | – | – | – | – | – | – | – | – | formation of G1 and G2 ([5]; inhibitor 500 μM): significantly inhibited

The next lines start with results.

decrease of fmet value [1] [%] | decrease in efflux excretion clearance [1] [%] | increase in intracellular level [1] [%] | decrease of efflux excretion rate [2] [%] | decrease of metabolized fraction [2] [%] | increase in intracellular level [2] [%] | reduction of efflux excretion rate [3] [%] | increase of intracellular level [3] [%] | decrease in fmet value [3] [%] | SMILES | other results
16.2 | 19.7 | 31.5 | 20.8 | 16.5 | 33.1 | 29.9 | 40.9 | 20.1 | COc1cc(/C=C/C(=O)CC(=O)/C=C/c2ccc(O)cc2)ccc1O[C@@H]1O[C@H](C(=O)O)[C@@H](O)[C@H](O)[C@H]1O [G1] | –
27.9 | 26.4 | 32.1 | 36.9 | 29.8 | 36.1 | 33.0 | 51.6 | 24.5 | COc1cc(/C=C/C(=O)CC(=O)/C=C/c2ccc(O[C@@H]3O[C@H](C(=O)O)[C@@H](O)[C@H](O)[C@H]3O)cc2)ccc1O [G2] | –

From article PMC6544300, “Mechanism of the efflux transport of demethoxycurcumin-O-glucuronides in HeLa cells stably transfected with UDP-glucuronosyltransferase 1A1” (PLoS ONE, 2019)
